# According to patent publication US8999981B2, “3-amido-pyrrolo[3,4-C]pyrazole-5(1H, 4H,6H) carbaldehyde derivatives” (Pfizer Inc., priority 2007, dated 2015):
# Target: Protein Kinase C beta 2 (PKCβII) (Homo sapiens (Human), UniProt P05771)
# Assay: PKCβII coupled PK/LDH spectrophotometric kinase assay
# Format: biochemical
# Conditions: apparent Ki, ATP-competitive model (Morrison equation); 0.1 mM ATP, 30° C.; read-out: PKCb Ki
# Description: This transfer is coupled to the oxidation of β-NADH through the activities of Pyruvate Kinase (PK) and Lactate Dehydrogenase (LDH). β-NADH conversion to NAD+ is monitored by the decrease in absorbance at 340 nm (e=6.22 cm^−1 mM^−1) using a Molecular Devices SPECTRA max PLUS spectrophotometer.
# A typical assay was carried out on a 96-well, clear microtiter plate in a Molecular Devices spectrophotometer for 20 minutes at 30° C. in 0.1 mL of assay buffer containing 50 mM HEPES, pH 7.4, 5 nM PKC, 23 units of pyruvate kinase, 33 units of lactate dehydrogenase, 0.15 mM peptide, 0.1 mM ATP, 1 mM DTT, 4 mM PEP, 8 mM MgCl2, 0.3 mM NADH, 60 mM CaCl2, 10 mg/mL PS, 50 ng/mL PMA, 7.5% DMSO and from about 10,000 nM to 0.169 nM compound inhibitor. Stock solutions of 3-sn-phosphatidyl-L-serine (PS) and phorbol-12-myristate-13-acetate (PMA) were sonicated for 30 seconds just prior to addition to assay buffer and assays were initiated by the addition of 100 μM ATP.
# Enzyme turnover values (kcat) were calculated according to […], where [E] is the total enzyme concentration. Enzyme inhibition constants (apparent K values) were determined by fitting initial velocities at variable inhibitor concentrations to a model for ATP competitive inhibition based on the Morrison equation). Morrison, J. F., Biochim. Biophys Acta 185: 269-286 (1969).
# Protein Kinase C beta 2 (PKCβII), sequence (P05771 other isoform, or with tags, fused parts or gaps): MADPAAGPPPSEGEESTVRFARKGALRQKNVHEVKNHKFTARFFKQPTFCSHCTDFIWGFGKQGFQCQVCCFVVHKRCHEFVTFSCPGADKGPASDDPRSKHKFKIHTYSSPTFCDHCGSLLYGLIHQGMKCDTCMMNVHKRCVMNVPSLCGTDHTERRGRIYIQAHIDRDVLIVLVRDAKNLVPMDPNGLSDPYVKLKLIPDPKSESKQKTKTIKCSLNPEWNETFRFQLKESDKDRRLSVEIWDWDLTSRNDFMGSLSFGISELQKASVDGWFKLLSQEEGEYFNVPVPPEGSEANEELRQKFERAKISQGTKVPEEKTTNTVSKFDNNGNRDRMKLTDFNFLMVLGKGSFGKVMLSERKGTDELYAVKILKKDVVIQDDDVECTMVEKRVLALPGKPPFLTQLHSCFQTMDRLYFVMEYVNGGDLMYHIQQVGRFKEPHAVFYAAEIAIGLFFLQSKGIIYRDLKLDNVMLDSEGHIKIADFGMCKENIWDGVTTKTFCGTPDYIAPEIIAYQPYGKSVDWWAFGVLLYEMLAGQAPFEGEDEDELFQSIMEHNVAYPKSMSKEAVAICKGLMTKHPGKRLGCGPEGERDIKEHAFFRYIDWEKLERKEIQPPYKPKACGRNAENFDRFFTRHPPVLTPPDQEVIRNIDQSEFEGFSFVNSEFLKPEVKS
row,Ki [nM],Structure (SMILES)
1,28.9,CC1(C)c2[nH]nc(NC(=O)c3cccc(Cl)c3)c2CN1C(=O)N1CCN2CCCC2C1 (stereo not drawn) [Example A22]
2,55.9,CC1(C)c2[nH]nc(NC(=O)c3cccc(Cl)n3)c2CN1C(=O)N1CCN2CCCC2C1 (stereo not drawn) [Example A23]
3,42.9,CC1(C)c2[nH]nc(NC(=O)c3cccc(Cl)n3)c2CN1C(=O)N1CCN2CCCC2C1 (stereo not drawn) [Example A24]
4,28.8,CC1(C)c2[nH]nc(NC(=O)c3ccc4ccncc4n3)c2CN1C(=O)N1C[C@@H]2CCCN2C[C@@H]1Cc1ccccc1 [Example A25]
5,35.1,C[C@H]1CN2CCC[C@H]2CN1C(=O)N1Cc2c(NC(=O)c3ccccc3)n[nH]c2C1(C)C [Example A27]
6,96.1,CCC[C@H]1CN2CCC[C@H]2CN1C(=O)N1Cc2c(NC(=O)c3ccccc3)n[nH]c2C1(C)C [Example A28]
7,21.3,C[C@H]1CN2CCC[C@H]2CN1C(=O)N1Cc2c(NC(=O)c3cccc(Cl)c3)n[nH]c2C1(C)C [Example A31]
8,32.7,COc1ccc(C(=O)Nc2n[nH]c3c2CN(C(=O)N2C[C@@H]4CCCN4C[C@@H]2C)C3(C)C)cc1 [Example A40]
9,67.9,Cc1cc(C(=O)Nc2n[nH]c3c2CN(C(=O)N2C[C@@H]4CCCN4C[C@@H]2C)C3(C)C)n(C)n1 [Example A42]
10,135,C[C@H]1CN2CCC[C@H]2CN1C(=O)N1Cc2c(NC(=O)c3cncs3)n[nH]c2C1(C)C [Example A43]
11,43.5,C[C@H]1CN2CCC[C@H]2CN1C(=O)N1Cc2c(NC(=O)c3cscn3)n[nH]c2C1(C)C [Example A44]
12,104,C[C@H]1CN2CCC[C@H]2CN1C(=O)N1Cc2c(NC(=O)c3cccc(OC(F)(F)F)c3)n[nH]c2C1(C)C [Example A45]
13,36.2,CC1CN(C(=O)N2Cc3c(NC(=O)c4ccccn4)n[nH]c3C2(C)C)C(C)CN1 (stereo not drawn) [Example A46]
14,65.5,COc1ccc(C(=O)Nc2n[nH]c3c2CN(C(=O)N2C[C@@H]4CCCN4C[C@@H]2C)C3(C)C)nc1 [Example A47]
15,20.9,Cc1cc(C)nc(C(=O)Nc2n[nH]c3c2CN(C(=O)N2C[C@@H]4CCCN4C[C@@H]2C)C3(C)C)c1 [Example A51]
16,149,Cc1cc(C(=O)Nc2n[nH]c3c2CN(C(=O)N2C[C@@H]4CCCN4C[C@@H]2C)C3(C)C)nn1C [Example A52]
17,177,CC(C)c1csc(C(=O)Nc2n[nH]c3c2CN(C(=O)N2C[C@@H]4CCCN4C[C@@H]2C)C3(C)C)n1 [Example A55]
18,18.1,CC1(C)c2[nH]nc(NC(=O)c3ccccn3)c2CN1C(=O)N1C[C@@H]2CCCN2C[C@@H]1CC1CCCCC1 [Example A56]
19,87.4,CC1(C)CN2CCC[C@H]2CN1C(=O)N1Cc2c(NC(=O)c3cccc(Cl)c3)n[nH]c2C1(C)C [Example A57]
20,35.3,Cc1cc(C(=O)Nc2n[nH]c3c2CN(C(=O)N2C[C@@H]4CCCN4C[C@@H]2C)C3(C)C)nc(Cl)n1 [Example A58]
21,94.5,COc1cc(C(=O)Nc2n[nH]c3c2CN(C(=O)N2C[C@@H]4CCCN4C[C@@H]2C)C3(C)C)nc(OC)n1 [Example A59]
22,17.1,C[C@H]1CN2CCC[C@H]2CN1C(=O)N1Cc2c(NC(=O)c3cccc(C#N)c3)n[nH]c2C1(C)C [Example A60]
23,50.8,Cc1cc(C(=O)Nc2n[nH]c3c2CN(C(=O)N2C[C@@H]4CCCN4C[C@@H]2C)C3(C)C)ccc1F [Example A62]

# Further lines, the compound ahead of its results:
row,Structure (SMILES),Ki [nM]
1,"C[C@H]1CN2CCC[C@H]2CN1C(=O)N1Cc2c(NC(=O)c3ccccn3)n[nH]c2C1(C)C [Example A1, N-(6,6-Dimethyl-5-((3S,8aS)-3-methyl-octahydropyrrolo[1,2-a]pyrazine-2-carbonyl)-1,4,5,6-tetrahydropyrrolo[3,4-c]pyrazol-3-yl)picolinamide]",29.2
2,CC1(C)c2[nH]nc(NC(=O)c3cccc(Oc4ccccc4)c3)c2CN1C(=O)N1C[C@@H]2CCCN2C[C@@H]1Cc1ccccc1 [Example A3],36.8
3,CN1CCN(C(=O)N2Cc3c(n[nH]c3NC(=O)c3cc4ccccc4s3)C2(C)C)[C@@H](Cc2ccccc2)C1 [Example A4],146
4,CN1CCN(C(=O)N2Cc3c(NC(=O)c4cccs4)n[nH]c3C2(C)C)[C@@H](Cc2ccccc2)C1 [Example A6],187
5,CN1CCN(C(=O)N2Cc3c(NC(=O)c4cc5ccccc5o4)n[nH]c3C2(C)C)[C@@H](Cc2ccccc2)C1 [Example A7],124
6,CN1CCN(C(=O)N2Cc3c(NC(=O)c4ccc5ccccc5n4)n[nH]c3C2(C)C)[C@@H](Cc2ccccc2)C1 [Example A8],78.1
7,CN1CCN(C(=O)N2Cc3c(NC(=O)c4cccc(Oc5ccccc5)c4)n[nH]c3C2(C)C)C(c2ccccc2)C1 (stereo not drawn) [Example A9],159
8,CC1(C)c2[nH]nc(NC(=O)c3cccc(Oc4ccccc4)c3)c2CN1C(=O)N1CCNCC1c1ccccc1 (stereo not drawn) [Example A10],55.9
9,CC1(C)c2[nH]nc(NC(=O)c3ccc4ccccc4n3)c2CN1C(=O)N1CCN2CCCC2C1 (stereo not drawn) [Example A11],73.9
10,CC(C)C[C@H]1CN2CCC[C@H]2CN1C(=O)N1Cc2c(NC(=O)c3ccc4ccccc4n3)n[nH]c2C1(C)C [Example A12],103
11,CC1(C)c2[nH]nc(NC(=O)c3ccc4ccccc4n3)c2CN1C(=O)N1C[C@@H]2CCCN2C[C@@H]1Cc1ccccc1 [Example A13],27.7
12,CC1(C)c2[nH]nc(NC(=O)c3ccc4ccccc4n3)c2CN1C(=O)N1C[C@@H]2CCCN2C[C@@H]1Cc1ccccc1 [Example A14],16.1
13,CC1(C)c2[nH]nc(NC(=O)c3cccs3)c2CN1C(=O)N1CCN2CCCC2C1 (stereo not drawn) [Example A15],136
14,CC1(C)c2[nH]nc(NC(=O)c3ccccc3)c2CN1C(=O)N1CCN2CCCC2C1 (stereo not drawn) [Example A16],113
15,COc1cccc(C(=O)Nc2n[nH]c3c2CN(C(=O)N2C[C@@H]4CCCN4C[C@@H]2Cc2ccccc2)C3(C)C)c1 [Example A17],16.1
16,COc1ccc(C(=O)Nc2n[nH]c3c2CN(C(=O)N2C[C@@H]4CCCN4C[C@@H]2Cc2ccccc2)C3(C)C)cc1 [Example A18],30.2
17,CC1(C)c2[nH]nc(NC(=O)c3ccccc3Cl)c2CN1C(=O)N1C[C@@H]2CCCN2C[C@@H]1Cc1ccccc1 [Example A19],91.4
18,CC1(C)c2[nH]nc(NC(=O)c3cccc(F)c3F)c2CN1C(=O)N1C[C@@H]2CCCN2C[C@@H]1Cc1ccccc1 [Example A20],50.8
19,Cn1ccnc1C(=O)Nc1n[nH]c2c1CN(C(=O)N1C[C@@H]3CCCN3C[C@@H]1Cc1ccccc1)C2(C)C [Example A26],69.3

row,Structure (SMILES),Ki [nM]
1,C[C@@H]1CN(C(=O)N2Cc3c(NC(=O)c4ccccn4)n[nH]c3C2(C)C)C[C@H](C)N1 [Example A29],77.6
2,C[C@H]1CN2CCC[C@H]2CN1C(=O)C1Cc2c(NC(=O)c3cc(Cl)cc(Cl)c3)n[nH]c2C1(C)C (stereo partly drawn) [Example A30],22.9
3,C[C@H]1CN2CCC[C@H]2CN1C(=O)N1Cc2c(NC(=O)c3ccccc3F)n[nH]c2C1(C)C [Example A32],92.4
4,C[C@H]1CN2CCC[C@H]2CN1C(=O)N1Cc2c(NC(=O)c3cc(Cl)ccc3F)n[nH]c2C1(C)C [Example A33],82.7
5,C[C@H]1CN2CCC[C@H]2CN1C(=O)N1Cc2c(NC(=O)c3ccc(F)c(Cl)c3)n[nH]c2C1(C)C [Example A34],21.9
6,C[C@H]1CN2CCC[C@H]2CN1C(=O)N1Cc2c(NC(=O)c3cc(C(F)(F)F)ccc3F)n[nH]c2C1(C)C [Example A35],176
7,C[C@H]1CN2CCC[C@H]2CN1C(=O)N1Cc2c(NC(=O)c3ccc(Cl)c(Cl)c3)n[nH]c2C1(C)C [Example A36],13.9
8,C[C@H]1CN2CCC[C@H]2CN1C(=O)N1Cc2c(NC(=O)c3c(F)cccc3C(F)(F)F)n[nH]c2C1(C)C [Example A37],155
9,C[C@H]1CN2CCC[C@H]2CN1C(=O)N1Cc2c(NC(=O)c3c(F)cccc3Cl)n[nH]c2C1(C)C [Example A38],181
10,COc1cccc(C(=O)Nc2n[nH]c3c2CN(C(=O)N2C[C@@H]4CCCN4C[C@@H]2C)C3(C)C)c1 [Example A39],47.4
11,C[C@H]1CN2CCC[C@H]2CN1C(=O)N1Cc2c(NC(=O)c3ccc(OC(F)(F)F)cc3)n[nH]c2C1(C)C [Example A41],45.4
12,COc1cc(C(=O)Nc2n[nH]c3c2CN(C(=O)N2C[C@@H]4CCCN4C[C@@H]2C)C3(C)C)ccc1Cl [Example A48],68.8
13,C[C@H]1CN2CCC[C@H]2CN1C(=O)N1Cc2c(NC(=O)c3ccc(F)c(Cl)c3)n[nH]c2C1(C)C [Example A49],53.6
14,CCc1ccc(C(=O)Nc2n[nH]c3c2CN(C(=O)N2C[C@@H]4CCCN4C[C@@H]2C)C3(C)C)nc1 [Example A50],82.1
15,CCc1ccnc(C(=O)Nc2n[nH]c3c2CN(C(=O)N2C[C@@H]4CCCN4C[C@@H]2C)C3(C)C)c1 [Example A53],66.3
16,C[C@H]1CN2CCC[C@H]2CN1C(=O)N1Cc2c(NC(=O)c3nc4ccccc4s3)n[nH]c2C1(C)C [Example A54],49.9
17,CCc1ccc(C(=O)Nc2n[nH]c3c2CN(C(=O)N2C[C@@H]4CCCN4C[C@@H]2C)C3(C)C)cc1 [Example A61],23.8
18,C[C@H]1CN2CCC[C@H]2CN1C(=O)N1Cc2c(NC(=O)c3cccc(F)c3F)n[nH]c2C1(C)C [Example A63],65.4
